According to US20210354140A1, “MICROFLUIDIC DEVICE AND USES THEREOF” (Bar Ilan University, priority 2020, published 2021):
“Also recorded” adds a separate entry of the source. Like-named read-outs stand apart in the source and are kept apart here.

Experiments:
[1] = system: Non-small cell lung carcinoma patients; conditions: patients first treated with Alectinib, then replaced with Crizotinib; cited from earlier work
[2] = system: pleural effusion samples from Non-small cell lung carcinoma patients; assay: CSRA of patient pleural effusion samples, Propidium iodide cell viability; type: cell-based, human; conditions: 15 μM, 24-hour exposure; samples from 8 patients
Method: The drug response of pleural effusion samples taken from 8 Non-small cell lung carcinoma patients was tested in a preliminary experiment. […] The genomic analysis could not predict however development of resistance. For each of the samples, the cells were first uploaded into the chip for a 24-hour acclimation period after which the cells were exposed different drugs. The 24 hours response to two […], Alectinib and Crizotinib (15 μM) is shown herein. Cell viability was measured using Propidium iodide, which dyes the nuclei of dead cells (magenta). It was known that the biopsies originated from patients that were treated with Alectinib and Crizotinib, however their response to each treatment was not known nor the order in which the drugs were administered, in order to avoid any sort of confirmation bias when collecting and analyzing the data. The moment when the pleural effusions were collected during the treatments was neither known. Crizotinib, like Alectinib is an ALK inhibitor and works by operating as a competitive inhibitor to the ATP binding site of the tyrosine kinase enzyme that the ALK gene codes for and in doing so prevents its carcinogenic activity. […] At the end of the 24-hour exposure period, the data from the experiments was analyzed and calculated to determine the survival and or mortality rate of the cells.

[3] = system: MCF-7 cells; assay: MCF-7 cell response to a printed drug array, live/dead assay; type: cell-based; conditions: drugs spotted at 0, 0.1, 0.5, 0.7 and 1 mM; 2 hours incubation
Method: MCF7 cells response to 4 different drugs (Doxorubicin, Docetaxel, Pacletoxel, Methotrexate) at 4 different concentrations (0.1-1 mM). The drugs were printed on the slide and aligned into drug chamber inside the device. Live/dead assay was performed by double staining dead cells (Red) and live cells (Green).
(§1) The evaluation of anticancer drug effect on cells vitality was conducted in two steps. First, Docetaxel was used, which is one of the first-line chemotherapies used for metastatic breast cancer. Docetaxel, at different concentrations (1 uM, 10 uM and 100 uM), was flown into the microfluidics device for 5 minutes, following the cell accommodation period. Then the cells, were incubated with the drug for 2 hours. Cell feeding, by diffusion, commenced until the experiment was finished. Live/dead assay was applied up to 48 hours following drug administration. After the evaluation of cells response to one drug-Docetaxel the effect was tested of an array of drugs on the cells. The drugs were printed on a glass substrate and their spotted array was aligned to the drug chamber in the microfluidic device.
(§2) Custom assays for cells vitality evaluation were applied. Living cells were stained with Calcein-AM (50 ng/ul in DMEM medium) (Biotest, Israel) which colors the cytoplasm. Dead cells were stained with Propidium Iodide (PI) (Sigma, Israel) (15 ng/ul in DMEM medium), coloring the nuclear. All cells nuclear (live and dead) were stained by Hoechst 33342 stain (Bis-Benzimide H3342 trihydro-chloride, Sigma, Israel) (10 ng/μl in DMEM medium). A solution of all three dyes was prepared and flowed within the chip. The cells were washed with the solution for 20 min at a pressure of 2 psi. Following dyes application, the controlled valves were closed and the device was incubated for 30 min at 37° C. 5% CO2 to allow cells staining. Next, the valves were opened and the device was washed by phenol-free DMEM medium for 15 min, to remove colures remains.
The drugs, Doxorubicin (Doxorubicin hydrochloride, Tocirs, USA), Docetaxel, Paclitaxel Methotrexate (drugs were supplied with the courtesy of Dr. Levanon, The institute of Oncology, Chaim Sheba Medical Center, Israel), were spotted on a microscope slide at 5 different concentrations (0, 0.1, 0.5, 0.7 and 1 mM) and then covered with the microfluidic device, encompassing the thy drugs inside the drug chamber. Cells were seeded on the device and cultured for 2 hours. Then the valve blocking the drug chamber was opened and the drugs were flooded and allowed to diffuse out and incubated with the cells for 2 hours. A different response was observed dynamics to the different drugs, expressed by different mortality rates.

[4] = system: 293T cells; assay: Live/dead staining assay in microfluidic device after Docetaxel exposure, 293T cells; type: cell-based; parameters: dose or concentration left out as unconfirmed; conditions: Docetaxel for 2 hours, 48 hours after seeding; live/dead assay at T0, 5, 24, 48 hours
Method: as §1, with “Docetaxel, at different concentrations (1 uM, 10 uM and 100 uM), was flown into the microfluidics device for 5 minutes, following the cell accommodation period.” left out
Custom assays for cells vitality evaluation were applied. […]
(§3) Statistical analysis was carried up using Microsoft Excel 2016 Data Analysis package and RStudio (RStudio Team (2015). RStudio: Integrated Development for R. RStudio, Inc., Boston, Mass.) Images were processed with NIS Elements Analysis software (ver. 40.20.01 Nikon, USA). For all experiments, variables are expressed as traditional boxplots, presenting median, maximum, minimum and Interquartiie range (IQR). […] In all cases, significance was defined as p<0.05, one way analysis of variance was evaluated using Anova, while multiple comparison was evaluated using Tukey's range test (post-hoc Anova analysis). […]

[5] = system: dispersed cells and cell clusters; assay: cells; type: cell-based
Method: Cells were exposed twice to Docetaxel once at a concentration of 1 μM and 24 hours later re-exposed to 10 μM Docetaxel for a period of 2 hrs. […] P value was determined using two-tail T-test (n=43).
FIG. 9A: Cells were exposed twice to Docetaxel once at a concentration of 1 μM and 48 hours later a second exposure to 10 μM. Images were taken 24 hours after the second drug exposure T24 (which is 120 hours post seeding).
Cells were exposed to 10 μM Docetaxel for 2 hours. The dynamic of cell death was detected using PI staining. […] Monitoring proceeded up to 28 hours.
as §2, with “Next, the valves were opened and the device was washed by phenol-free DMEM medium for 15 min, to remove colures remains.” left out

[6] = system: MCF7 cells; assay: Live/dead staining assay in microfluidic device after Docetaxel exposure, MCF7 cells; type: cell-based; parameters: dose or concentration left out as unconfirmed; conditions: Docetaxel for 2 hours, 48 hours after seeding; live/dead assay at T0, 5, 24, 48 hours; n=47; vs untreated control
Method: The cells were then dissociated from the culture dish at 60-70% confluence with 0.25% trypsin in PBS, resuspended in DMEM containing 10% FBS and introduced into the microfluidic device. […] MCF7/Dx cell line was grown in the presence of 10 ^M doxorubicin and cultured for 4 weeks in drug-free medium prior to use.
The evaluation of anticancer drug effect on cells vitality was conducted in two steps. First, Docetaxel was used, which is one of the first-line chemotherapies used for metastatic breast cancer. […] Then the cells, were incubated with the drug for 2 hours. Cell feeding, by diffusion, commenced until the experiment was finished. Live/dead assay was applied up to 48 hours following drug administration. […]
as §3

[7] = system: cells in microfluidic cell chamber; assay: Dynamics of cell death following Docetaxel treatment (FIG. 6), PI staining in cell chambers; type: cell-based; conditions: Docetaxel 10 uM, 2 hours exposure, 50 drug chambers vs 50 control chambers
Method: FIG. 6A: Live images of a representative cell chamber before (T0) and after (up to 20 hours) exposure to Docetaxel (10 uM). Dead cells were stained with Red (PI).
FIG. 6B: Box plot analysis of the mortality rate (%) of cells following 2 hours of exposure to Docetaxel (10 uM)—T0. Nearly 100 cells chambers were analyzed, 50 following drug exposure and 50 control—no drug exposure. […] Two tail paired T-test analysis were conducted.
Custom assays for cells vitality evaluation were applied. Living cells were stained with Calcein-AM (50 ng/ul in DMEM medium) (Biotest, Israel) which colors the cytoplasm. Dead cells were stained with Propidium Iodide (PI) (Sigma, Israel) (15 ng/ul in DMEM medium), coloring the nuclear. […]
Statistical analysis was carried up using Microsoft Excel 2016 Data Analysis package and RStudio (RStudio Team (2015). RStudio: Integrated Development for R. RStudio, Inc., Boston, Mass.) Images were processed with NIS Elements Analysis software (ver. 40.20.01 Nikon, USA). For all experiments, variables are expressed as traditional boxplots, presenting median, maximum, minimum and Interquartiie range (IQR). […] In all cases, significance was defined as p<0.05, one way analysis of variance was evaluated using Anova, while multiple comparison was evaluated using Tukey's range test (post-hoc Anova analysis).

[8] = system: MCF-7 cells; assay: Doxorubicin treatment specificity in microfluidic device, MCF-7 cells; conditions: drug sensitive MCF7 cells; 24 hours of 10 μM doxorubicin
[9] = system: MCF-7/dx (Doxorubicin resistant cells); assay: Doxorubicin treatment specificity in microfluidic device, Doxorubicin resistant MCF-7/dx cells; conditions: drug resistant MCF7/Dx cells; 24 hours of 10 μM doxorubicin
[10] = in vivo; cited from earlier work

CCc1cc2c(cc1N1CCC(N3CCOCC3)CC1)C(C)(C)c1[nH]c3cc(C#N)ccc3c1C2=O [Alectinib]
patient response to treatment (patient history) [1]: developed resistance | 24 hours drug response of patient samples (resistance / sensitivity) [2]: All samples were resistant; also recorded: all the patients were resistant

C[C@@H](Oc1cc(-c2cnn(C3CCNCC3)c2)cnc1N)c1c(Cl)ccc(F)c1Cl [Crizotinib]
patient response to treatment (patient history) [1]: the response was different between patients | 24 hours drug response of patient samples (resistance / sensitivity) [2]: varying sensitivity; also recorded: varying from resistance to medium or high response

CC(=O)O[C@@]12CO[C@@H]1C[C@H](O)[C@@]1(C)C(=O)[C@H](O)C3=C(C)[C@@H](OC(=O)[C@H](O)[C@@H](NC(=O)OC(C)(C)C)c4ccccc4)C[C@@](O)([C@@H](OC(=O)c4ccccc4)[C@H]21)C3(C)C [Docetaxel]
dose dependence of sensitivity of MCF-7 cells [3]: dose dependence sensitivity was observed | mortality rate of MCF-7 cells versus drug dose [3]: mortality rate increased starting from the lower dose of drug (0.1 mM) (p<0.05) | mortality rate of 293T cells post drug exposure [4]: increase in mortality rate after 5 hrs (p<0.05) with no further deterioration | mortality at 1 µM ([5]; read-out: Cluster mortality rate (Mean±S.E)): 33 ± 5% | mortality at 1 µM ([5]; read-out: mortality rate of the dispersed cells population (Mean±S.E)): 65 ± 6% | mortality rate of MCF7 cells post drug exposure [6]: significantly increased (p<0.05) within 5 hours post drug exposure with no further increase in mortality rate up to 48 hours | cells vitality immediately after 2 hrs of drug exposure (T0 drug) [7]: no differences in cells vitality | cells mortality rate twenty hours post cultivation ([7]; 20 hours): following drug exposure a further significant increase was observed (p<0.05)

COc1cccc2c1C(=O)c1c(O)c3c(c(O)c1C2=O)C[C@@](O)(C(=O)CO)C[C@@H]3O[C@H]1C[C@H](N)[C@H](O)[C@H](C)O1 [Doxorubicin]
dose dependence of sensitivity of MCF-7 cells [3]: dose dependence sensitivity was observed | mortality rate of MCF-7 cells versus drug dose [3]: mortality rate increased starting from the lower dose of drug (0.1 mM) (p<0.05) | cells showing morphological features of apoptotic/necrotic processes [8]: about 98% | morphological features of apoptotic/necrotic processes [9]: almost absent

CN(Cc1cnc2nc(N)nc(N)c2n1)c1ccc(C(=O)N[C@@H](CCC(=O)O)C(=O)O)cc1 [Methotrexate]
dose dependence of sensitivity of MCF-7 cells [3]: dose dependence sensitivity was observed | mortality rate of MCF-7 cells versus drug dose [3]: mortality rate increased starting from the lower dose of drug (0.1 mM) (p<0.05)

CC(=O)O[C@H]1C(=O)[C@@]2(C)[C@H]([C@H](OC(=O)c3ccccc3)[C@]3(O)C[C@H](OC(=O)[C@H](O)[C@@H](NC(=O)c4ccccc4)c4ccccc4)C(C)=C1C3(C)C)[C@]1(OC(C)=O)CO[C@@H]1C[C@@H]2O [Paclitaxel]
dose dependence of sensitivity of MCF-7 cells [3]: dose dependence sensitivity was observed | mortality rate of MCF-7 cells versus drug dose [3]: mortality rate increased starting from the lower dose of drug (0.1 mM) (p<0.05)

Infliximab: purified, recombinant DNA-derived chimeric human-mouse IgG monoclonal antibody against TNF-α
serum half-life [10]: 228 h | time detectable in serum after infusion treatment [10]: 8 weeks
